# From patent EP1897937A1, “Method of culturing NPCs” (NeuroProgen GmbH Leipzig, priority 2006, dated 2008)
# Key:
# hmNPCs [1] = experiment: Dopaminergic differentiation: counting of TH-positive cells by immunocytochemistry; assay type: cell-based, human
# Description: (§1) To determine long-term proliferation, hmNPCs were plated and expanded for 2 passages with or without addition of various agents (see below) to the custom expansion media containing the growth factors EGF and FGF2. Different fetal midbrain tissues were included in this study. At the end of the proliferation period, differentiation of hmNPCs was induced via replacement of expansion media with mitogen-free media containing 1% FCS, 5 µM forskoline (Sigma-Aldrich Chemie GmbH Munich, Germany), and 100 pg/ml IL-1β (Sigma). The differentiation and expansion media were supplemented with different drugs as appropriate. Prior to immunocytochemistry or protein extraction, hmNPCs were allowed to differentiate for 1 week. To determine short-term proliferation via Ki67 immunostaining, the cells were seeded into 24-well plates (70,000 cells/well) and left overnight to rest. P2 receptor agonists (ATP, UTP, ATP + UTP, ADP, ADPβS) were supplied daily for 5 consecutive days. Ki67/nestin double-positive cells were counted in 8 randomly selected fields of nucleotide-treated or untreated samples. For the assessment of MAPK phosphorylation the cells were kept free of mitogens for 2 d prior to addition of the MEK-inhibitor in expansion media. In addition, the MEK-inhibitor was added during the differentiation period 15 min before UTP administration.
# UTP, UDP, ATP, ADP, ADPβS and suramin were purchased from Sigma (Sigma-Aldrich Chemie GmbH Munich, Germany). UTP and UDP were applied at different concentrations (1 µM, 10 µM, 100 µM), ATP at 100 µM, ADP at 100 µM, and ADPβS at100 µM. During expansion of the cells, the nucleotides were renewed once a week with every media change, unless otherwise stated. They were applied once at the beginning of the differentiation period. The P2 receptor antagonist suramin (10 µM) was added to expansion media 30 min prior to addition of UTP (100 µM). The stock solution of the MEK1/2 inhibitor U0126 (Promega Corporation, Mannheim, Germany) was prepared in dimethyl sulfoxide (DMSO) at a concentration of 10 mM. The stock solution was then diluted in 0.1 M PBS to obtain a concentration of 1 mM. MEK inhibitor (final concentration 10 µM) was added to mitogen-free expansion media, 15 min before UTP treatment (1 µM) of hmNPCs.
# Expanded or one week differentiated hmNPCs were fixed with 4% paraformaldehyde in PBS for 10 min at room temperature and washed with PBS, counterstained with the DNA-binding dye 4'-6-Diamidino-2-phenylindole (DAPI, 2 µg/ml in PBS) for 15 min at room temperature, washed twice in PBS followed by incubation in blocking buffer (10% FCS, 0.2% Triton-X 100 in PBS, pH 7.2) for 30 min at room temperature. After incubation with a primary antibody (over night at 4°C in blocking buffer), the cells were incubated with fluorescent secondary antibodies, Alexa Fluor® 488 conjugate or Alexa Fluor® 594 conjugate (Molecular Probes, Eugene, USA). Cover-slips were mounted onto glass slides and examined under a fluorescence microscope (Zeiss Axiovert 200). Acquisition of the cells was performed using the Image-analysis software AxioVision 4 (Carl Zeiss AG, Jena, Germany). The following primary antibodies were used for immunofluorescence: rabbit polyclonal anti-β-tubulin III (anti-Tuj1) antibody, rabbit polyclonal anti-tyrosine hydroxylase antibody , mouse monoclonal anti-nestin antibody (Pharmingen, San Diego, CA, USA), rabbit polyclonal anti-Ki67 antigen antibody (Novocastra Laboratories Ltd, Newcastle upon Tyne, UK). Estimation of the TH-positive cell numbers was performed by counting of cells among approximately 1000 differentiated cells in total within 6 randomly selected fields.
# hmNPCs [2] = experiment: Protein content of cell extracts (Bradford method); assay type: cell-based; conditions: Homo sapiens, 336 h, 2 weeks of expansion, read-out: protein yield compared to untreated samples
# Description: as §1
# In order to prepare protein extracts, hmNPCs were collected, washed with ice-cold PBS and lysed in buffer [10 mM HEPES-KOH (pH 7.9), 10 mM KCI, 1.5 mM MgCl2, 0.1% NP-40], supplemented with protease inhibitor cocktail (Roche). After a brief centrifugation at 4°C/10 000×g, protein concentrations and protein yield from extracts were determined using the Bradford method (Bio-Rad, Hercules, CA, USA). To preserve the phosphorylation state of proteins, extracts for the MAPK experiment were obtained using the PhosphoSafe™ extraction reagent containing phophatase inhibitors (Novagen). […] The chemiluminescence was quantified using the AIDA, two-dimensional densitometry software (Raytest lsotopenmeb, Straubenhardt, Germany). […]
compound,measurement,setting,value
"O=c1ccn([C@@H]2O[C@H](COP(=O)(O)OP(=O)(O)OP(=O)(O)O)[C@@H](O)[C@H]2O)c(=O)[nH]1 [UTP, uridine 5'-triphosphate]",contribution of TH-immunopositive cells to the total of Tuj1-immunopositive cells,"hmNPCs [1]; 100 µM, 2 weeks of expansion followed by 1 week of differentiation",increased
same,activity at 100 µM,"hmNPCs [1]; Homo sapiens, 168 h, 100 µM each, once, only during the differentiation period of one week, read-out: number of TH-positive (dopaminergic) cells as compared to control",239 ± 27%
same,activity at 1 µM,"hmNPCs [1]; Homo sapiens, 1 µM, 2 weeks of expansion and one week of differentiation, read-out: number of TH-positive cells",211 ± 30%
same,activity at 100 µM,"hmNPCs [1]; Homo sapiens, 100 µM during proliferation and differentiation, read-out: number of TH-positive cells",267 ± 20%
same,activity at 1 µM,hmNPCs [2]; 1 µM,165%
same,activity at 10 µM,hmNPCs [2]; 10 µM,125%
same,activity at 100 µM,hmNPCs [2]; 100 µM,113%
